The molecules below were run against T1, Prostaglandin G/H synthase 1 (Ovis aries, UniProt P05979).
T1 sequence (P05979 whole entry): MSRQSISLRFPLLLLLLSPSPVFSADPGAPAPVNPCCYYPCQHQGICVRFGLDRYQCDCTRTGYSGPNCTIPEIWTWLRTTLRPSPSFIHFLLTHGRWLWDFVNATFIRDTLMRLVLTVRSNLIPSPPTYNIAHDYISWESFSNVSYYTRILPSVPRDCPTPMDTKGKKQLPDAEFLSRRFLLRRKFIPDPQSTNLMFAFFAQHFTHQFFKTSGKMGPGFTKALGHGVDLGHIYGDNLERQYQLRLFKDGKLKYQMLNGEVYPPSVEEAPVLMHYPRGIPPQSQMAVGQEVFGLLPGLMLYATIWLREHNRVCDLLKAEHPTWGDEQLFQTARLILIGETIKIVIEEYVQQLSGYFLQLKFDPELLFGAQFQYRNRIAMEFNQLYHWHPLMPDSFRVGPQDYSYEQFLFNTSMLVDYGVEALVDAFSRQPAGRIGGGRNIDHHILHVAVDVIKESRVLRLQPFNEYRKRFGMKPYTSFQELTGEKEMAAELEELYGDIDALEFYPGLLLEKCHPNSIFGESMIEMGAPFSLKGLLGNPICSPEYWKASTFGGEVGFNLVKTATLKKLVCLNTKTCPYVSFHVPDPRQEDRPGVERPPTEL
Description: Inhibition of ovine COX1 by chemiluminescent assay
With Cc1ccc(NC(=O)Nc2ccc(S(C)(=O)=O)cc2)cc1 the IC50 was 12.5 µM. Molecule CS(=O)(=O)c1ccc(NC(=O)Nc2ccc(Cl)cc2)cc1 has an IC50 of 21.5 µM. COc1ccc(NC(=O)Nc2ccc(S(C)(=O)=O)cc2)cc1 showed an IC50 of 22.4 µM. CS(=O)(=O)c1ccc(NC(=O)Nc2ccc(F)cc2)cc1 was tested, and the IC50 was 21.8 µM. CS(=O)(=O)c1ccc(NC(=O)Nc2ccccc2)cc1 was tested, and the IC50 was 9.2 µM.

— ChEMBL document CHEMBL1141483, “Design and synthesis of 1,3-diarylurea derivatives as selective cyclooxygenase (COX-2) inhibitors” (Bioorg Med Chem Lett, 2008)
